In assay [1] the target is T1, ATM (Homo sapiens, UniProt Q13315).
T1 construct: endogenous in cells; host or cells: cultured cells, lysed and immunoprecipitated with anti-ATM monoclonal antibody
In words: ATM immune complex protein kinase assay (inhibition by wortmannin). The assay is classed as biochemical. Here is the method: (§1) For these experiments, 5X10^6 cells were washed in ice-cold phosphate buffered saline and lysed in 700 µl of 10 mM Tris-HCl (pH 7.5), 150 mM NaCl, 0.2% dodecyl maltoside (Sigma), 5 mM EDTA, 50 mM NaF, 2 mM phenylmethylsulfonylfluoride, 100 µM NaVO4, 2 µg/ml aprotonin (lysis buffer). Freshly prepared cell lysates were incubated for 2 hours at 4°C on a rotator with 10 µl of hybridoma supernatants. Fifty µl of magnetic beads coated with anti-mouse IgG (Dynabeads M-450, DYNAL, Oslo, Norway) were added and the mixture was further rotated at 4°C for 2 hours. Immune complexes were collected using a magnetic stand (DYNAL) and washed 3 times with lysis buffer. For Western blotting analysis, 1/3 of this mixture was loaded on a polyacrylamide-SDS gel which was later blotted onto a nitrocellulose membrane (Nitrocell MFF, Pharmacia Biotech, San Francisco, CA) as previously described [ref 8]. Immune complexes were washed twice with kinase buffer (50 mM Hepes, pH 7.5, 150 mM NaCl, 4 mM MnCl2, 6 mM MgCl2, 10% v/v glycerol, 1 mM DTT, 100 µM NaVO4). Two hundred ng - 1 µg substrate, 10 µCi [32P]ATP and ATP to final concentration of 5 µM were added, and the reaction mixtures were incubated at 30°C for 3-15 minutes. […]
ATM immune complexes were incubated with various concentrations of the drug and washed with the reaction buffer before kinase activity was measured. […]

The test system of assay [2] is ATM. In words: Kinase activity of ATM immunoprecipitated from cells treated with NCS. The assay is classed as cell-based, human. Here is the method:
as §1, with “NaVO4).” for “NaVO4). Two hundred ng - 1 µg substrate, 10 µCi [32P]ATP and ATP to final concentration of 5 µM were added, and the reaction mixtures were incubated at 30°C for 3-15 minutes.”
Kinase activity was assayed using the p53-N47 substrate. The histogram presents quantitation of the data from the top panel (B). […]
U: untreated cells. The curve presents quantitation of the data from the top panel.

Read-outs that look alike come from different tables or passages of the source.

T1 sequence (Q13315 whole entry): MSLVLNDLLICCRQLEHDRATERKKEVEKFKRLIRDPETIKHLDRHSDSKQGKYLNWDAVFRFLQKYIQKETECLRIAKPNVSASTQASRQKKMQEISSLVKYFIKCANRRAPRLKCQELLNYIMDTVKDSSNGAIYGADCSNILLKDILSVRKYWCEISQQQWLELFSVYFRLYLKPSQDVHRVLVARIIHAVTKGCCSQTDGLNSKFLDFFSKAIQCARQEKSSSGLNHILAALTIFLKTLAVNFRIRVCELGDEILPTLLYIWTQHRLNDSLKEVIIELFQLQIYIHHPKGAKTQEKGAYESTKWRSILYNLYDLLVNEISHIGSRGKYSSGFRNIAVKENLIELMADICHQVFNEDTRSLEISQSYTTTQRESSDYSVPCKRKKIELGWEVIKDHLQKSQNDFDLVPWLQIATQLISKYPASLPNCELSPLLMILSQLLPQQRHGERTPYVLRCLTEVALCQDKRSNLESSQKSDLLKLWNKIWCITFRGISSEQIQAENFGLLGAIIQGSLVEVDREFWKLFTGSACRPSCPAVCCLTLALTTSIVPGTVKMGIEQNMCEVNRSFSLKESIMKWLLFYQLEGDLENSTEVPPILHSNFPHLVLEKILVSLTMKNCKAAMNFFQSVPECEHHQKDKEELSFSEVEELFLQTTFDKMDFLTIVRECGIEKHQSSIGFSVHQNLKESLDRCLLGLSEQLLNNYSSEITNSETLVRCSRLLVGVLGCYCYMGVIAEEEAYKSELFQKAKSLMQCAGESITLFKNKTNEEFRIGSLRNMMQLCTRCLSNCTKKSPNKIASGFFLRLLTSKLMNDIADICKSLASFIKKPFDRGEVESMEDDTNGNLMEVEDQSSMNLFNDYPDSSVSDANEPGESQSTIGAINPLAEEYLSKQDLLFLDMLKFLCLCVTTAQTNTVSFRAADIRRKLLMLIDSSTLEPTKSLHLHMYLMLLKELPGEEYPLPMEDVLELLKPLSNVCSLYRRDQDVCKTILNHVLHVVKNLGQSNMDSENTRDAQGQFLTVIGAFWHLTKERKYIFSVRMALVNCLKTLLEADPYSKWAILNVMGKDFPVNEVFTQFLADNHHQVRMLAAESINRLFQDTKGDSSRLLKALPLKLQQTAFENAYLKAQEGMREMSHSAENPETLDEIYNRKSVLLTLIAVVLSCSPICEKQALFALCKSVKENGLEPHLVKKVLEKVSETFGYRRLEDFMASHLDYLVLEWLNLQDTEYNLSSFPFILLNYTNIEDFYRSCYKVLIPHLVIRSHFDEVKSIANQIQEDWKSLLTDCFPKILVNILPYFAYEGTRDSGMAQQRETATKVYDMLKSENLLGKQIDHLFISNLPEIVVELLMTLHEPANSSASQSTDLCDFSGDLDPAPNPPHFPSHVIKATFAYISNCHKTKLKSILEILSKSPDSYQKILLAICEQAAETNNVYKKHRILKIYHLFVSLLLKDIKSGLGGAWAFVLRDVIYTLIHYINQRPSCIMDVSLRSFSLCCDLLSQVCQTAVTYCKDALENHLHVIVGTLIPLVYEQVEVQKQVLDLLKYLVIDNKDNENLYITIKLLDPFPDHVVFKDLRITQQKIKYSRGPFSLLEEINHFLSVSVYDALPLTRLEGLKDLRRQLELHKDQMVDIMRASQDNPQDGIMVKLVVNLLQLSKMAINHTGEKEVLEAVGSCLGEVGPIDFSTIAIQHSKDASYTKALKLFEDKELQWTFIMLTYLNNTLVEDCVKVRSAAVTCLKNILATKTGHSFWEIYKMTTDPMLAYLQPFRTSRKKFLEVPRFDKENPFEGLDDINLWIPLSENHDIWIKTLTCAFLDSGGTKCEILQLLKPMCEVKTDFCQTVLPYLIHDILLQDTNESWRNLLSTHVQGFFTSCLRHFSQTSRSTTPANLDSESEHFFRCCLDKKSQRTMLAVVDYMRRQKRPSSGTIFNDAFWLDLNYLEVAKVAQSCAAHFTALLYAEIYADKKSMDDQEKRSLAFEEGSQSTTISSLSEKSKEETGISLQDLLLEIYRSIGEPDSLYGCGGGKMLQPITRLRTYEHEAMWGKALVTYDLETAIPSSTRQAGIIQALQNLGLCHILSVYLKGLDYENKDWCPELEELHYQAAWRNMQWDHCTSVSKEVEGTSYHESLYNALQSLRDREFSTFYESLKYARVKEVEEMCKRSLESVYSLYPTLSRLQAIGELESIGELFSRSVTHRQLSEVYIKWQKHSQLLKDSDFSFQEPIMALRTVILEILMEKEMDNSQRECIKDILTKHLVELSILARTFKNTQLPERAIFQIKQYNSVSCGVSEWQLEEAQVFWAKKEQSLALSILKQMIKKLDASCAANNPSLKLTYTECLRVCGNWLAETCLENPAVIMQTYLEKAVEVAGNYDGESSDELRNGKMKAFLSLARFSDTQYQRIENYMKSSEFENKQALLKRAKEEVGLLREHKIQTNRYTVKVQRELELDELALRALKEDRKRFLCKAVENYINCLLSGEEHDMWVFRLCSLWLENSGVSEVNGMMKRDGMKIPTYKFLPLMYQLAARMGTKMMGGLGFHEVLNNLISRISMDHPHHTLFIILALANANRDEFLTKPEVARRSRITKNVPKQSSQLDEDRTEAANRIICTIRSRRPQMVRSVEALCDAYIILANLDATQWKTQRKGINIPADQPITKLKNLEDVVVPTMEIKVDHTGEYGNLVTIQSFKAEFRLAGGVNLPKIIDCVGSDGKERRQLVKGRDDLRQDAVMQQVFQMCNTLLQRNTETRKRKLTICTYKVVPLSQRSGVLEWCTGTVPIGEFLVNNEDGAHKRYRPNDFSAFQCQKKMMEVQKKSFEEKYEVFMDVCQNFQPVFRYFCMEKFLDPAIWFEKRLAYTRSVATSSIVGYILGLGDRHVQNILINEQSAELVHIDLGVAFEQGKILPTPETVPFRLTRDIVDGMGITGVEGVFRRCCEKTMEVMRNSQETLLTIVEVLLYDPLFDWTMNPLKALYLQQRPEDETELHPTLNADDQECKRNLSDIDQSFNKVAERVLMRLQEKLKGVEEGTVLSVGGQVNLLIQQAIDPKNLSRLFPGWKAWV

As a reminder, the IC50 is the point on the concentration scale where inhibition reaches its midpoint. As to `COC[C@H]1OC(=O)c2coc3c2[C@@]1(C)C1=C(C3=O)[C@@H]2CCC(=O)[C@@]2(C)C[C@H]1OC(C)=O` [wortmannin], the half-inhibitory concentration (IC50) in assay [1] is 80 nM; in assay [1] (ATM immune complexes exposed to wortmannin for 30 minutes and washed before kinase assay, PHAS-I as substrate, activity normalized to amount of ATM protein, read-out: IC50 (sensitivity of ATM-associated kinase activity to wortmannin)) it was 100 nM.
As for neocarzinostatin [NCS], the “maximal enhancement of ATM's activity compared to its basal activity” value in assay [2] (nine experiments, ATM immunoprecipitated from cells after NCS treatment, p53-N47 substrate) is recorded as 4.4±0.8 fold. Also, the “time of second enhancement of ATM's activity following treatment” value in assay [2] (time course after NCS (50 ng/ml), Figure 3B) was “about 120 minutes”.

The values above are taken from EP0982318A2, “Enchanced phosphorylation of P53 by ATM in response to DNA damage” (RAMOT UNIVERSITY AUTHORITY FOR APPLIED RESEARCH & …, priority 1998, dated 2000).
